Measured values as given in ChEMBL document CHEMBL1146357, “Antidepressant-like profile of action of two 4-amine derivatives of 10,11-dihydro-5H-dibenzo [a,d] cycloheptane in mice evaluated in the forced swimming test” (2007).

How the values were obtained:
Type in all cases: functional
Conditions in all cases: route intraperitoneal
[1] = tested on: Mus musculus; assay: Antidepressant activity in Swiss mouse assessed as immobility time at 30 mg/kg/day, ip after 10 days by 5-mins swim test
[2] = tested on: Mus musculus; assay: Antidepressant activity in Swiss mouse assessed as immobility time at 1 mg/kg, ip thrice a day by 5-mins swim test
[3] = tested on: Mus musculus; assay: Antidepressant activity in Swiss mouse assessed as immobility time at 30 mg/kg, ip thrice a day by 5-mins swim test
[4] = tested on: Mus musculus; assay: Antidepressant activity in Swiss mouse assessed as reduction in immobility time at 30 mg/kg/day, ip after 10 days by 5-mins swim test; design: scale not given: the % may be the effect or the level left
[5] = tested on: Mus musculus; assay: Effect on motor co-ordination in Swiss mouse assessed as number of falls at 30 mg/kg, ip after 10 days by Rota-rod test
[6] = tested on: Mus musculus; assay: Effect on motor co-ordination in Swiss mouse assessed as time on rotating bar at 30 mg/kg, ip after 10 days by Rota-rod test
[7] = tested on: Mus musculus; assay: Antidepressant activity in Swiss mouse assessed as immobility time at 50 mg/kg, ip thrice a day by 5-mins swim test
[8] = tested on: Mus musculus; assay: Antidepressant activity in Swiss mouse assessed as immobility time at 5 mg/kg, ip thrice a day by 5-mins swim test
[9] = tested on: Mus musculus; assay: Antidepressant activity in Swiss mouse assessed as immobility time at 15 mg/kg, ip thrice a day by 5-mins swim test
[10] = tested on: Mus musculus; assay: Antidepressant activity in Swiss mouse assessed as reduction in immobility time at 50 mg/kg/day, ip after 10 days by 5-mins swim test; design: scale not given: the % may be the effect or the level left
[11] = tested on: Mus musculus; assay: Antidepressant activity in Swiss mouse assessed as immobility time at 100 mg/kg, ip thrice a day by 5-mins swim test
[12] = tested on: Mus musculus; assay: Effect on motor co-ordination in Swiss mouse assessed as number of falls at 50 mg/kg, ip after 10 days by Rota-rod test
[13] = tested on: Mus musculus; assay: Antidepressant activity in Swiss mouse assessed as immobility time at 50 mg/kg/day, ip after 10 days by 5-mins swim test
[14] = tested on: Mus musculus; assay: Effect on motor co-ordination in Swiss mouse assessed as time on rotating bar at 50 mg/kg, ip after 10 days by Rota-rod test
[15] = tested on: Mus musculus; assay: Effect on motor co-ordination in Swiss mouse assessed as time on rotating bar at 15 mg/kg, ip after 10 days by Rota-rod test
[16] = tested on: Mus musculus; assay: Effect on motor co-ordination in Swiss mouse assessed as number of falls at 15 mg/kg, ip after 10 days by Rota-rod test

| Compound | Time [1] [s] | Time [2] [s] | Time [3] [s] | Activity [4] [%] | Activity [5] | Time [6] [s] | Time [7] [s] | Time [8] [s] | Time [9] [s] | Activity [10] [%] | Time [11] [s] | Activity [12] | Time [13] [s] | Time [14] [s] | Time [15] [s] | Activity [16] |
| --- | --- | --- | --- | --- | --- | --- | --- | --- | --- | --- | --- | --- | --- | --- | --- | --- |
| c1ccc2c(c1)CCc1cccc3c1C2=NCCN3 | 186.4 | 215 | 169.92 | 15 | 0.4 | 58.6 | 199.25 | 197 | 186.57 | – | – | – | – | – | – | – |
| CN(C)CCCNc1cccc2c1C(=O)c1ccccc1CC2 | – | – | 169.31 | – | – | – | 132 | 220.22 | 187.1 | 13 | 206.38 | 0.5 | 190.33 | 59.5 | – | – |
| CN(C)CCCN1c2ccccc2CCc2ccccc21 [IMIPRAMINE] | – | – | – | – | – | – | – | – | 137.33 | – | – | – | – | – | 58.11 | 0.83 |
